The values that follow come from patent US20230066011A1, “PYRROLOPYRIMIDINE DERIVATIVE, AND PHARMACEUTICAL COMPOSITION FOR PREVENTING OR TREATING PROTEIN KINASE-RELATED DISEASE COMPRISING SAME AS ACTIVE INGREDIENT” (VORONOI CO., LTD., priority 2019, published 2023).

In general, IC50 refers to the concentration needed to halve the response being measured.

Experiment [1] addresses DYRK1 (Homo sapiens, UniProt Q13627). Description: Kinase HotSpot service (Reaction Biology Corporation), DYRK1. The experiment is classed as biochemical. Conditions: ATP 10 uM, read-out: DYRK1 IC50 (values indicated by *). On the procedure:
The inhibitory activities of the compounds were measured at a 3-fold concentration gradient starting from a maximum compound concentration of […], and the values measured using the Kinase HotSpot service (Reaction Biology Corporation) are indicated by an asterisk (*).
All the experimental methods were performed as provided by the Kinase HotSpot Customer Protocol (http://www.reactionbiology.com//Kinase_Assay_Protocol).

In experiment [2] the target is T1, CLK1 (Homo sapiens, UniProt P49759).
T1 construct: purchased DiscoverX Corp. (ScanMAX Kinase analysis panel, service)
The experiment is described as follows: ScanMAX Kinase analysis panel, CLK1. It counts as binding. To be noted: 1 μM in DMSO; <35% considered inhibitory; read-out: percent control (% control), CLK1. On the procedure: (§1) Specifically, the enzyme (kinase) selectivity of Example compounds 238, 361, 411, 157, 161, 228, and 158 selected from the Example compounds of the present invention was determined by commissioning DiscoverX Corp., and an experiment was performed using a ScanMAX™ Kinase analysis panel. In this case, a concentration of the drug with which the enzymes were treated was 1 μM in DMSO, and the percent control (% control) was defined in the same manner as in the following Expression 1.
(§2) (Example Compound−Positive Control)/(Negative Control−Positive Control)×100 [Expression 1]
(§3) wherein the positive control represents a compound having a percent control of 0%, and the negative control represents DMSO having a percent control of 100%. For the enzyme selectivity of the present invention, it was considered that the compound has an inhibitory activity on each of the enzymes when the percent control for the corresponding enzyme was <35% (i. e., less than 35%).

The target of experiment [3] is T2, CLK3 (Homo sapiens, UniProt P49761).
T2 construct: purchased DiscoverX Corp. (ScanMAX Kinase analysis panel, service)
The experiment is described as follows: ScanMAX Kinase analysis panel, CLK3. To be noted: 1 μM in DMSO; <35% considered inhibitory; read-out: percent control (% control), CLK3. It counts as binding. On the procedure:
as §1, §2, §3

For experiment [4], the target named is T3, DYRK1A (Homo sapiens, UniProt Q13627).
T3 construct: purchased DiscoverX Corp. (ScanMAX Kinase analysis panel, service)
The experiment is described as follows: ScanMAX Kinase analysis panel, DYRK1A. It counts as binding. To be noted: 1 μM in DMSO; <35% considered inhibitory; read-out: percent control (% control), DYRK1A. The method, then:
as §1, §2, §3

The target of experiment [5] is T4, GAK (Homo sapiens, UniProt O14976).
T4 construct: purchased DiscoverX Corp. (ScanMAX Kinase analysis panel, service)
T4 sequence (O14976 1-1311): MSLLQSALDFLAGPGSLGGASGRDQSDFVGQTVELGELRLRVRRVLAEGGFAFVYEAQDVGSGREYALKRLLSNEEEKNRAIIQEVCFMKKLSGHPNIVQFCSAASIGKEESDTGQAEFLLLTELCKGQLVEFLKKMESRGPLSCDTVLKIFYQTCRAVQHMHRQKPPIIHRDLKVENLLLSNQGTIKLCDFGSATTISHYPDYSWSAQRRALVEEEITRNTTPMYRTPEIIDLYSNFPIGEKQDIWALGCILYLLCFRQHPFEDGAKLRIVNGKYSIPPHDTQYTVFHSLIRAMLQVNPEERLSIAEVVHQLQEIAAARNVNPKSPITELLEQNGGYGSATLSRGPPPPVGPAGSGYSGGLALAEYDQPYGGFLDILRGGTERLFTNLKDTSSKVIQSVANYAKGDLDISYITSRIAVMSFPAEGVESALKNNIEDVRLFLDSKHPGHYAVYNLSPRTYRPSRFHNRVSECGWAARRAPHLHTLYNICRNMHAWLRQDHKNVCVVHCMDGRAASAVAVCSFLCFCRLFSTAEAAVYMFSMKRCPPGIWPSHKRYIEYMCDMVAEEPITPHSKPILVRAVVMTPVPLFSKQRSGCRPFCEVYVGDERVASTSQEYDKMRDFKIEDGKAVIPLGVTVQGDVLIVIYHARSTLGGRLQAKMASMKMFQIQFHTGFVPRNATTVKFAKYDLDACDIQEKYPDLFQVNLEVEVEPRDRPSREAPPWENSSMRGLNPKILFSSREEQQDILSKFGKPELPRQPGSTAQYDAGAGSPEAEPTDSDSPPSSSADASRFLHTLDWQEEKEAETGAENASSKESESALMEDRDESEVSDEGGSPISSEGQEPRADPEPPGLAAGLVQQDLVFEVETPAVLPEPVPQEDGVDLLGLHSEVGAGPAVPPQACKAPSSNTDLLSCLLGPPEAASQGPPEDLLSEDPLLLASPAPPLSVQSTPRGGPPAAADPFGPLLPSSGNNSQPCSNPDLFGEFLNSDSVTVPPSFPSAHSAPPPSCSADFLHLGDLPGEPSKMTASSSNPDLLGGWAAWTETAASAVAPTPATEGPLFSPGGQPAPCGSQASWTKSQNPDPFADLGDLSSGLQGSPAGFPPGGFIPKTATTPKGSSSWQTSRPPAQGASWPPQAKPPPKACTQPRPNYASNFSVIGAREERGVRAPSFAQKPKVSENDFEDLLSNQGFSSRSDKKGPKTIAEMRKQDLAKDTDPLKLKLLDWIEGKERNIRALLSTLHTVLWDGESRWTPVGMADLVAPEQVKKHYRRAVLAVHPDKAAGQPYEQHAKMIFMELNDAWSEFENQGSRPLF
The experiment is described as follows: ScanMAX Kinase analysis panel, GAK. The experiment is classed as binding. Conditions: 1 μM in DMSO; <35% considered inhibitory; read-out: percent control (% control), GAK. The method, then:
as §1, §2, §3

The target in experiment [6] is T5, PHKG2 (Homo sapiens, UniProt P15735).
T5 construct: purchased DiscoverX Corp. (ScanMAX Kinase analysis panel, service)
T5 sequence (P15735 1-406): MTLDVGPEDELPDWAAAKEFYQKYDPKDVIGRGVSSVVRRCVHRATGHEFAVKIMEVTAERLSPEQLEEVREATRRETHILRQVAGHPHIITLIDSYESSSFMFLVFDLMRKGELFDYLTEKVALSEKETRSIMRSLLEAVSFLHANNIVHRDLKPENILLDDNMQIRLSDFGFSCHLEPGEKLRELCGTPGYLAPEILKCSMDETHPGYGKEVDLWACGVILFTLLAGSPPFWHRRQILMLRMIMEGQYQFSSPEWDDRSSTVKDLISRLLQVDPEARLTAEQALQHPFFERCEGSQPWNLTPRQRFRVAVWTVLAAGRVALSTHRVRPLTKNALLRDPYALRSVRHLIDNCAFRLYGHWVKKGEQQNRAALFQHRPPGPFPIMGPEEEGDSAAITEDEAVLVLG
The experiment is described as follows: ScanMAX Kinase analysis panel, PHKG2. It counts as binding. To be noted: 1 μM in DMSO; <35% considered inhibitory; read-out: percent control (% control), PHKG2. The method, then: as §1, §2, §3

Experiment [7] concerns the target LRRK2 (Homo sapiens, UniProt Q5S007). The experiment is described as follows: ScanMAX Kinase analysis panel, LRRK2. The experiment is classed as binding. Further details: purchased DiscoverX Corp. (ScanMAX Kinase analysis panel, service). Conditions: 1 μM in DMSO; <35% considered inhibitory; read-out: percent control (% control), LRRK2. The method, then:
as §1, §2, §3

T1 sequence (P49759 whole entry): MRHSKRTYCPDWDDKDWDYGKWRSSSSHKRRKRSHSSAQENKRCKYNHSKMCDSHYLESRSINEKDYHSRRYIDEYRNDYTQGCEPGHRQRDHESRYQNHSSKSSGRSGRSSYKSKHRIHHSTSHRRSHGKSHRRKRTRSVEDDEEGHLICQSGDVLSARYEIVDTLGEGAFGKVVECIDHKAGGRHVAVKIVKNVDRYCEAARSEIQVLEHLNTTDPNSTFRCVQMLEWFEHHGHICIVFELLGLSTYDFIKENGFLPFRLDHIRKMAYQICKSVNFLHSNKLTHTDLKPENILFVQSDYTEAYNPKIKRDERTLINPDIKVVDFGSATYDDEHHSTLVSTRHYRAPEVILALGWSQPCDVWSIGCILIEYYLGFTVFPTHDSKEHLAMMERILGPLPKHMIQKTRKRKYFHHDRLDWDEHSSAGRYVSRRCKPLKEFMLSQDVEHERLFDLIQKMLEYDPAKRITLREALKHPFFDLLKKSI
Chain of LRRK2 (Q5S007 whole entry): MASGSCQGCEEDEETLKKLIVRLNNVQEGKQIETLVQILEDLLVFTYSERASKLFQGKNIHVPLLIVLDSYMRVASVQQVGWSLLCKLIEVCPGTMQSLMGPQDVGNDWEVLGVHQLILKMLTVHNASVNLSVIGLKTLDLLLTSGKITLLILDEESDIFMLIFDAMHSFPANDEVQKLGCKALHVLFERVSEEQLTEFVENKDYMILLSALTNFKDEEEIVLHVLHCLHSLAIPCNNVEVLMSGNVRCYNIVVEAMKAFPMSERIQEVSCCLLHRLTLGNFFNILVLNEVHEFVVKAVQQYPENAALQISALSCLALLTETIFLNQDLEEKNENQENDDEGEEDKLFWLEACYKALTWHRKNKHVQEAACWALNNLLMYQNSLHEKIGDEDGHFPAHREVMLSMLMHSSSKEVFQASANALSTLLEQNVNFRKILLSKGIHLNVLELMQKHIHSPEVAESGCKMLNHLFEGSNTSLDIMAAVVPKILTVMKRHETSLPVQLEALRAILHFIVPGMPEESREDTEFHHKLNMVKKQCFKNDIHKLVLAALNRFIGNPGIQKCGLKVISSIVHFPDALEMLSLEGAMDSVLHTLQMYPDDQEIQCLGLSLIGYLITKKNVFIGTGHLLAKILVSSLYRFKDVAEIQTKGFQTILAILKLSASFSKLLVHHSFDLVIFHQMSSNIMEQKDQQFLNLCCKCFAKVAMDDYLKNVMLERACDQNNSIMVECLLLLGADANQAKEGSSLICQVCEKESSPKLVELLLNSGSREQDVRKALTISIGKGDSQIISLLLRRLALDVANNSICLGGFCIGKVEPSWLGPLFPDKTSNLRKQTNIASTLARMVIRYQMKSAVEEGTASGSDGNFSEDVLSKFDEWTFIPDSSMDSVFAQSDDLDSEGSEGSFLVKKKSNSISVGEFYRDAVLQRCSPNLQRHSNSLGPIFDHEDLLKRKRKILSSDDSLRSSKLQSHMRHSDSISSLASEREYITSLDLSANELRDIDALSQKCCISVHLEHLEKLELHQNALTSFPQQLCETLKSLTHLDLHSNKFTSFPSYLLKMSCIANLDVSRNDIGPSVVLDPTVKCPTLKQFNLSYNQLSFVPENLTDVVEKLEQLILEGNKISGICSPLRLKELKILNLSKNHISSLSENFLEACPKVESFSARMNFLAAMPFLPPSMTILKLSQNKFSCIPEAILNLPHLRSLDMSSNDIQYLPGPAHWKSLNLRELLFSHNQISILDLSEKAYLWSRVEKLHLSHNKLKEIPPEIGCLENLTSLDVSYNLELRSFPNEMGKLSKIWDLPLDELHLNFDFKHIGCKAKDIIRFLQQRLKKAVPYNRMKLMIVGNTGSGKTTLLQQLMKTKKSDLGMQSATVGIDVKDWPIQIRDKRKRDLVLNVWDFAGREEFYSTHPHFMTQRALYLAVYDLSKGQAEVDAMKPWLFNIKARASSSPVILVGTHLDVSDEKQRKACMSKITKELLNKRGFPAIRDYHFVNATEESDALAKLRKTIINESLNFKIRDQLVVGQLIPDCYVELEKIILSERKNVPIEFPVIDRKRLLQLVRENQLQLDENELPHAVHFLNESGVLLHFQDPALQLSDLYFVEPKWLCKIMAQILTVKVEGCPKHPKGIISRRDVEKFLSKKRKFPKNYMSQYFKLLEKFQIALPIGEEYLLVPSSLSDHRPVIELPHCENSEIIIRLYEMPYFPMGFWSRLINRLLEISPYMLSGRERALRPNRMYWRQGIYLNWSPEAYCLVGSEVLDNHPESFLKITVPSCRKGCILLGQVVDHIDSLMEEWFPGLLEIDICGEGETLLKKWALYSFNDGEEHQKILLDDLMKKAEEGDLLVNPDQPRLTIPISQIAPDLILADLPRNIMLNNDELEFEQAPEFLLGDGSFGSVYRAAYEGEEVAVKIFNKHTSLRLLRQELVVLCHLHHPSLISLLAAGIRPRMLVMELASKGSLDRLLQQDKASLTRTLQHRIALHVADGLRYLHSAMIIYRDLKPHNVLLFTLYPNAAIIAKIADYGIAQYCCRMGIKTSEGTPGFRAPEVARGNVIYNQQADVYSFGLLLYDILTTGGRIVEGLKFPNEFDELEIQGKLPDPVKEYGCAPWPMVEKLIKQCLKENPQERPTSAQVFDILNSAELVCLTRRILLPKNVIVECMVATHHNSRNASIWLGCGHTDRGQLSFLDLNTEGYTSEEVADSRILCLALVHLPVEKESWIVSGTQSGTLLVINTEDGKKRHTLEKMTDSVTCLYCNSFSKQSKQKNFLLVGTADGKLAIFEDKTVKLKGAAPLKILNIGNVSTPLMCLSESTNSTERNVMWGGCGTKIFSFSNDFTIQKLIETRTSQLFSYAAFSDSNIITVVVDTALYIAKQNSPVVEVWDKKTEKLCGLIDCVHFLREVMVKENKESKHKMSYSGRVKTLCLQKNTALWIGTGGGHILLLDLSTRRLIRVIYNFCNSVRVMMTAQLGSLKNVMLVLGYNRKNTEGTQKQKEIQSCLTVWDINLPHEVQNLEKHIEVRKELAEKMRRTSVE
T2 sequence (P49761 whole entry): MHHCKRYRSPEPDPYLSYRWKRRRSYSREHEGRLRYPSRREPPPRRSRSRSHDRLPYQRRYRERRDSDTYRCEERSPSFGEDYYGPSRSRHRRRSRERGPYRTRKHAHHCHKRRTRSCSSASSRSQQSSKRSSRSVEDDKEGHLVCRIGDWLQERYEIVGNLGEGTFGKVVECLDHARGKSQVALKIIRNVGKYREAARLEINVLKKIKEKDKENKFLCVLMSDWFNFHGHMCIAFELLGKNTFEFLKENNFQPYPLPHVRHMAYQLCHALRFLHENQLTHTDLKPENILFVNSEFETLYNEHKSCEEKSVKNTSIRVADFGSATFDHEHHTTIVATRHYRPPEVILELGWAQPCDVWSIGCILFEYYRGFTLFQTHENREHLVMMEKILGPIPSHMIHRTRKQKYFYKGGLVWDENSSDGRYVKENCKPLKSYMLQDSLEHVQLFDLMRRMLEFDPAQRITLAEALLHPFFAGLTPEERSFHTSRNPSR

On to `O=C(c1ccc(Nc2nc(C3CC3)c3c(C(F)(F)F)c[nH]c3n2)c2c1OCCO2)N1CCC(N2CCOCC2)CC1` [Example 228, (8-((4-cyclopropyl-5-(trifluoromethyl)-7H-pyrrolo[2,3-d]pyrimidin-2-yl)amino)-2,3-dihydrobenzo[b][1,4]dioxin-5-yl)(4-morpholinopiperidin-1-yl)methanone], for which the IC50 in experiment [1] is less than 100 nM. Moreover, the remaining binding at 1 µM came out at 6.1% in experiment [2]; 25% in experiment [3]; 0.5% in experiment [4]; 3% in experiment [5]; 5.5% in experiment [6]; 0.3% in experiment [7].
